For orientation: pKa means the negative logarithm of the acid dissociation constant. Low values mean a stronger acid or weaker base, high ones a weaker acid or stronger base.

Here are results for one compound from ChEMBL document CHEMBL1151582, “The effect of pH on the solution structure of 1-pyrroline-2-carboxylic acid as revealed by NMR and electrospray mass spectroscopy” (Bioorg Med Chem Lett, 1993).

Data set [1] can be described thus: Acid dissociation constant of compound was determined (for carboxylic acid group). Format: ADME.
A short description of data set [2]: Acid dissociation constant of compound was determined (for pyrrolinium group). Format: ADME.

With `O=C(O)C1=NCCC1`, the pKa was 1.8 in data set [1] and 6.2 in data set [2].
